Test results: publication PMC8243516, “Inhibition of lysosomal phospholipase A2 predicts drug-induced phospholipidosis” (Journal of Lipid Research, 2021)
Counter-ions that a name gives are not always drawn. Like-named read-outs stand apart in the source and are kept apart here.

How the values were obtained:
[1] = target: T1, recombinant mouse LPLA2 (PLA2G15) (Mus musculus, UniProt Q8VEB4); assay: Transacylase activity of LPLA2 (1-O-acyl-N-acetylsphingosine synthase, cell-free liposome assay); type: biochemical
T1 construct: purchased Proteos Inc. (Kalamazoo, MI)
T1 sequence (Q8VEB4 34-412): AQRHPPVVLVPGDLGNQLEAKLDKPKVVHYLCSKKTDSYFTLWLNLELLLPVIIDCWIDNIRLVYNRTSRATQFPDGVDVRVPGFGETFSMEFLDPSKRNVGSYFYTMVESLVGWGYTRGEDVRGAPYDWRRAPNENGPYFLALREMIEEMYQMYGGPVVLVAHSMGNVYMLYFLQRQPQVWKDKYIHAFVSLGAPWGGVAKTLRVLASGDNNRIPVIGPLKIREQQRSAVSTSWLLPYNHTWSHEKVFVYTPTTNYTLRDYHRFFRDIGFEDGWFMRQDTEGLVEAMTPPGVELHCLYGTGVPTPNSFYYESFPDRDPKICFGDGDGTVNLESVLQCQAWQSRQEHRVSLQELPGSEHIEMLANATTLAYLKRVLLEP

LPLA2 = target: T2, LPLA2 (Mus musculus, UniProt Q8VEB4); assay: LPLA2 thermal stability measurement (SYPRO Orange Tm); type: binding
T2 construct: purchased Proteos Inc. (Kalamazoo, MI)
T2 sequence (Q8VEB4 34-412): T1 sequence (Q8VEB4 34-412)

phospholipidosis = conditions: cited from earlier work
[2] = ref Pubchem and chEMBL databases; cited from earlier work
[3] = 1-O-acyl N-acetylsphingosine synthase activity, pH 4.5, DOPC/sulfatide liposomes, read-out: LPLA2 IC50
[4] = phospholipidosis reported in vitro, Refs of Table 1

Compound | IC50 [1, 3] [µM] | In Vitro PLD (phospholipidosis; [4]) | (ΔTm)c-(ΔTm)d, difference in melting temperature of LPLA2 alone or in the presence of drug (LPLA2; N=3 ± SD) [°C] | pKa (basic) [2] | other results
Clc1ccc(C(c2ccccc2Cl)C(Cl)Cl)cc1 (centres unmarked) [Mitotane, 1-chloro-4-[2,2-dichloro-1-(2-chlorophenyl)ethyl] benzene] | 132 | Yes | – | – | (ΔTm)c-(ΔTm)d, difference in melting temperature of LPLA2 alone or in the presence of drug (LPLA2): 0.47 ± 0.1 °C
CC(C)N=c1cc2n(-c3ccc(Cl)cc3)c3ccccc3nc-2cc1Nc1ccc(Cl)cc1 [Clofazimine, N,5-bis(4-chlorophenyl)-3,5-dihydro-3-(isopropylimino)phenazin-2-amine] | 10.8 | Yes | -0.97 ± 0.1 | – | –
CCN(CC)CCc1nc(-c2ccccc2)no1 [Oxolamine citrate, diethyl[2-(3-phenyl-1,2,4-oxadiazol-5-yl)ethyl]amine] | 369 | Yes | – | 8.96 | –
CC1=C(CC(=O)O)c2cc(F)ccc2/C1=C\c1ccc([S+](C)[O-])cc1 (centres unmarked) [Sulindac, 2-[(1Z)-5-fluoro-1-[(4-methanesulfinylphenyl)methylidene]-2-methyl-1H-inden-3-yl]acetic acid] | 10.9 | Yes | -0.10 ± 0.0 | – | –
COc1ccc(CCN2CCC(Nc3nc4ccccc4n3Cc3ccc(F)cc3)CC2)cc1 [Astemizole, 1-(4-fluorobenzyl)-2-(1-[4-methoxyphenethyl]piperidin-4-yl)aminobenzimidazole] | – | Yes | – | 8.75 | –
CC(C)(C)NCC(O)c1cc(Cl)c(N)c(Cl)c1.Cl (stereo not drawn) [Clenbuterol, 4-amino-3,5-dichloro-α-[[(1,1-dimethylethyl)amino]methyl]-benzenemethanol, monohydrochloride] | – | Yes | 1.20 ± 0.23 | – | LPLA2 inhibition (in words) [1]: millimolar concentrations; IC50 ([1]; LPLA2 IC50): 7300 µM
CN(C)CCN(Cc1cccs1)c1ccccn1 [Methapyrilene, N-[2-(dimethylamino)ethyl]-N-[(thiophen-2-yl)methyl]pyridin-2-amine] | – | Yes | – | 8.85 | –
C[C@]12C=CC(=O)N[C@@H]1CC[C@@H]1[C@@H]2CC[C@]2(C)[C@@H](C(=O)Nc3cc(C(F)(F)F)ccc3C(F)(F)F)CC[C@@H]12 [Dutasteride, (1S,2R,7R,10S,11S,14S,15S)-N-[2,5-bis (trifluoromethyl)phenyl]-2,15-dimethyl-5-oxo-6-azatetracyclo[8.7.0.0^2,^7.0^11,^15]heptadec-3-ene-14-carboxamide] | 1050 | Yes | – | 2.17 | –
CC12CC3CC(C)(C1)CC(N)(C3)C2.Cl [Memantine, 3,5-Dimethyl-1-adamantanamine hydrochloride] | 35.7 | Yes | 2.00 ± 0.2 | – | –
CCCN(CCC)CCc1cccc2c1CC(=O)N2 [Ropinirole, 4-[2-(dipropylamino)ethyl]-2,3-dihydro-1H-indol-2-one] | – | Yes | – | 10.17 | –
O=C(CCCN1CCC2(CC1)C(=O)NCN2c1ccccc1)c1ccc(F)cc1 [Spiperone, 8-[3-(p-fluor benzoyl)propyl]-1-phenyl-1,3,8-triazaspiro [4.5]decan-4-one] | 519 | Yes | 1.86 ± 0.1 | – | –
c1ccc2c(CC3=NCCN3)cccc2c1 [Naphazoline, 2-(naphthalen-1-ylmethyl)-4,5-dihydro-1H-imidazole] | – | Yes | – | 10.19 | –
O=C(O)c1cc(O)ccc1O [Gentisic acid, 2,5-dihydroxybenzoic acid sodium salt] | – | Yes | – | – | –
CN1CCC[C@@H]1CCO[C@](C)(c1ccccc1)c1ccc(Cl)cc1 [Clemastine] | – | Yes | – | 9.55 | –
CC(C)COCC(CN(Cc1ccccc1)c1ccccc1)N1CCCC1.Cl (centres unmarked) [Bepridil hydrochloride, 1-isobutoxy-2-pyrrolidino-3-(N-benzylanilino) propane hydrochloride] | 7.17 | – | – | 9.16 | In Vitro PLD (phospholipidosis): Yes
Nc1c2c(nc3ccccc13)CCCC2 [Tacrine, 1,2,3,4-tetrahydroacridin-9-amine] | – | – | – | – | In Vitro PLD (phospholipidosis): Yes
O=C(Nc1cccc2c(=O)cc(-c3nnn[nH]3)oc12)c1ccc(OCCCCc2ccccc2)cc1 [Pranlukast, N-[4-oxo-2-(2H-1,2,3,4-tetrazol-5-yl)-4H-chromen-8-yl]-4-(4-phenylbutoxy)benzamide] | – | Yes | 0 | -1.7 | –
CN1CCN2c3ccccc3Cc3ccccc3C2C1 (centres unmarked) [Mianserin, 5-methyl-2,5 diazatetracyclo [13.4.0.0^2,^7.0^8,^1³] nonadeca-1(19),8,10,12,15,17-hexaene] | – | Yes | – | 6.9 | –
CCN(CC)CC#CCOC(=O)C(O)(c1ccccc1)C1CCCCC1 (stereo not drawn) [Oxybutynin, α-phenylcyclohexaneglycolic acid 4-(diethylamino)-2-butynyl ster hydrochloride] | – | Yes | – | 8.77 | –
CN1CCC(=C2c3ccccc3CC(=O)c3sccc32)CC1 [Ketotifen] | 19.7 | Yes | 0.10 ± 0.0 | – | –
CCOC(=O)N1CCC(=C2c3ccc(Cl)cc3CCc3cccnc32)CC1 [Loratadine, ethyl 4-{13-chloro-4-azatricyclo[9.4.0.0^3,^8]pentadeca-1(11),3(8),4,6,12,14-hexaen-2-ylidene}piperidine-1-carboxylate] | 8.94 | Yes | – | – | –
CC#C[C@]1(O)CC[C@H]2[C@@H]3CCC4=CC(=O)CCC4=C3[C@@H](c3ccc(N(C)C)cc3)C[C@@]21C [Mifepristone, (1S,3aS,3bS,10R,11aS)-10-[4-(dimethylamino)phenyl]-1-hydroxy-11a-methyl-1-(prop-1-yn-1-yl)-1H,2H,3H,3aH, 3bH,4H,5H,7H,8H, 9H,10H,11H,11aH-cyclopenta[a]phenanthren-7-one] | 27.7 | – | – | 4.89 | (ΔTm)c-(ΔTm)d, difference in melting temperature of LPLA2 alone or in the presence of drug (LPLA2): 0.20 ± 0.0 °C
CC(C)C[C@H]1C(=O)N2CCC[C@H]2[C@]2(O)O[C@](NC(=O)[C@@H]3C=C4c5cccc6[nH]c(Br)c(c56)C[C@H]4N(C)C3)(C(C)C)C(=O)N12 [Bromocriptine, (4R,7R)-10-bromo-N-[(1S,2S,4R,7S)-2-hydroxy-7-(2-methylpropyl)-5,8-dioxo-4-(propan-2-yl)-3-oxa-6,9-diazatricyclo[7.3.0.0ˆ{2,6}]dodecan-4-yl]-6-methyl-6,11diazatetracyclo[7.6.1.0ˆ{2,7}.0ˆ{12,16}]hexadeca-1(16),2,9,12,14-pentaene-4-carboxamide] | 125 | Yes | – | 6.71 | –
CCN(CCCCOC(=O)c1ccc(OC)c(OC)c1)C(C)Cc1ccc(OC)cc1 (centres unmarked) [Mebeverine, 4-{ethyl[1-(4-methoxyphenyl)propan-2-yl]amino}butyl 3,4-dimethoxybenzoate] | 417 | – | -0.05 ± 0.5 | 10.31 | –
CN(C)CCOC(c1ccccc1)c1ccccc1 [Diphenhydramine] | – | Yes | – | – | –
